Results on 2 molecules are retold here after US11396512B2, “CDK2/4/6 inhibitors” (Pfizer Inc., priority 2016, dated 2022).

Assay [1] concerns HCC1806 mouse tumor xenograft. In words: HCC1806 tumor model (mouse xenograft). Format: in vivo. The note with it: NU/NU female mice, 30 mpk PO BID, 50 mpk PO BID and 75 mpk PO BID, 14 days. The procedure:
Source: HCC1806 (#CRL 2335, ATCC, Manassas, Va.)
The HCC1806 tumor cell line was cultured in RPM11640 media supplemented with 10% Fetal Bovine Serum (FBS). To establish a HCC1806 xenograft model, 5×10^6 cells per mouse were implanted subcutaneously into right hind flank NU/NU female mice. Cells were suspended in 50% Cultrex Basement Membrane Extract and 50% RPMI 1640 media serum free media prior to implantation.
Animals were randomized 7 days after cells implantation with each group consisting of 13 mice. Treatment began when tumors reached 100 mm^3 to 170 mm^3 in size on Day 7. Test compounds were prepared in 0.1% Tween, 0.5% Methyl cellulose in water and dosed PO at 30, 50, and 75 mg/kg as a suspension BID for 14 days. Mice receiving no drugs were given vehicle BID for 14 days. Tumor volumes were measured twice a week with an electric caliper, with tumor volumes calculated using Length×Width×Width/2 formula. Animal weights were recorded twice weekly.

For a further assay, the target named is CDK6/Cyclin D1 (Homo sapiens (Human), UniProt Q00534). Briefly: biochemical.

pKi: −log10 of the molar value.

Sequence of CDK6/Cyclin D1 (Q00534 whole entry): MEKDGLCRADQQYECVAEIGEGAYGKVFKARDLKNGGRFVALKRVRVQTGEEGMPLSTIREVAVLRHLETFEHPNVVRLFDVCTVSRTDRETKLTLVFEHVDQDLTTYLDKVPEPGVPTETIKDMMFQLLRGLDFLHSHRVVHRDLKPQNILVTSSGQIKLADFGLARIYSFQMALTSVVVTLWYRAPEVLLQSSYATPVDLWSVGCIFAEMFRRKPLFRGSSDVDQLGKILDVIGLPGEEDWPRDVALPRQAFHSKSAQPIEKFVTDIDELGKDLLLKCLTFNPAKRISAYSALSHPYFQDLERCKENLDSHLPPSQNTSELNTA
Sequence of CDK6/Cyclin D1 (P24385 whole entry partner): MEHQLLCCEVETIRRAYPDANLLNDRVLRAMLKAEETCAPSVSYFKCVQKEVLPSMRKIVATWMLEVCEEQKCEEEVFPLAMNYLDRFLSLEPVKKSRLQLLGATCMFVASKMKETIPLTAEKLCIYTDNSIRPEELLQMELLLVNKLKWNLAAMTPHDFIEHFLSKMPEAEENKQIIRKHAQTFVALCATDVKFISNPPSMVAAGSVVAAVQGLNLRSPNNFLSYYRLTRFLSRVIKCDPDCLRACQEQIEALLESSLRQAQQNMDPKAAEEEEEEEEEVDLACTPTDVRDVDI

In the case of `C[C@@]1(O)CCC[C@H]1n1c(=O)ccc2cnc(NC3CCN(S(C)(=O)=O)CC3)nc21` [Example 2, 8-[(1R,2R)-2-hydroxy-2-methylcyclopentyl]-2-{[1-(methylsulfonyl)piperidin-4-yl]amino}pyrido[2,3-d]pyrimidin-7(8H)-one], the “inhibition of tumor growth (mm^3)” value in assay [1] is given as “dose dependent inhibition of tumor growth”. A word on the pKi: it is the negative decadic logarithm of the Ki, by convention in mol/L. In turn, `C[C@]1(O)CCCC1n1c(=O)ccc2cnc(NC3CCN(S(=O)(=O)C(F)(F)F)CC3)nc21` (single isomer, unassigned) [Example 89] had a pKi on CDK6/Cyclin D1 of 7.95.
